Test results reported in ChEMBL document CHEMBL3784918, “Novel 2,4-diaminopyrimidines bearing tetrahydronaphthalenyl moiety against anaplastic lymphoma kinase (ALK): Synthesis, in vitro, ex vivo, and in vivo efficacy studies” (Bioorg Med Chem Lett, 2016).
pIC50: −log10 of the molar value. Calls of active or inactive are those of the source. The rule behind the calls is not given here.

Tests used:
[1] = Tmax in cannulated Sprague Dawley rat at 10 mg/kg administered through oral gavage by LC/MS/MS analysis; format: ADME, organism-based; details: in vivo
CYP1A2 = CYP1A2 (Homo sapiens, UniProt P05177); test: Inhibition of CYP1A2 (unknown origin) at 10 uM; format: ADME
CYP2C9 = CYP2C9 (Homo sapiens, UniProt P11712); test: Inhibition of CYP2C9 (unknown origin) at 10 uM; format: ADME
CYP2D6 = CYP2D6 (Homo sapiens, UniProt P10635); test: Inhibition of CYP2D6 (unknown origin) at 10 uM; format: ADME
CYP3A4 = CYP3A4 (Homo sapiens, UniProt P08684); test: Inhibition of CYP3A4 (unknown origin) at 10 uM; format: ADME
CYP2C19 = CYP2C19 (Homo sapiens, UniProt P33261); test: Inhibition of CYP2C19 (unknown origin) at 10 uM; format: ADME
[2] = Cmax in cannulated Sprague Dawley rat at 10 mg/kg administered through oral gavage by LC/MS/MS analysis; format: ADME, organism-based; set-up: dose 10 mg/kg, route oral; details: in vivo
[3] = Half life in cannulated Sprague Dawley rat at 10 mg/kg administered through oral gavage by LC/MS/MS analysis; format: ADME, organism-based; details: in vivo
[4] = AUCt in cannulated Sprague Dawley rat at 10 mg/kg administered through oral gavage by LC/MS/MS analysis; format: ADME, organism-based; details: in vivo
[5] = AUCinfinity in cannulated Sprague Dawley rat at 10 mg/kg administered through oral gavage by LC/MS/MS analysis; format: ADME, organism-based; set-up: dose 10 mg/kg, time infinity, route oral; details: in vivo
NCI-H3122 [6] = test: Antitumor activity against human NCI-H3122 cells xenografted in SCID mouse assessed as tumor growth inhibition at 50 mg/kg, po administered qd for 14 days; format: functional, organism-based
NCI-H3122 [7] = test: Antitumor activity against human NCI-H3122 cells xenografted in SCID mouse assessed as tumor growth inhibition at 25 mg/kg, po administered qd for 14 days; format: functional, organism-based
[8] = target: Focal adhesion kinase 1 (Homo sapiens) (UniProt Q05397); test: Inhibition of human FAK at 1 uM after 30 mins by fluorescence assay in presence of ATP
[9] = target: Insulin receptor (Homo sapiens) (UniProt P06213); test: Inhibition of human IR at 1 uM after 30 mins by fluorescence assay in presence of ATP
[10] = target: Activated CDC42 kinase 1 (Homo sapiens) (UniProt Q07912); test: Inhibition of human ACK1 at 1 uM after 30 mins by fluorescence assay in presence of ATP
[11] = target: Fibroblast growth factor receptor 1 (Homo sapiens) (UniProt P11362); test: Inhibition of human FGFR1 at 1 uM after 30 mins by fluorescence assay in presence of ATP
[12] = target: Receptor-type tyrosine-protein kinase FLT3 (Homo sapiens) (UniProt P36888); test: Inhibition of human FLT3 at 1 uM after 30 mins by fluorescence assay in presence of ATP
Chain of Receptor-type tyrosine-protein kinase FLT3 (Homo sapiens) (P36888 whole entry): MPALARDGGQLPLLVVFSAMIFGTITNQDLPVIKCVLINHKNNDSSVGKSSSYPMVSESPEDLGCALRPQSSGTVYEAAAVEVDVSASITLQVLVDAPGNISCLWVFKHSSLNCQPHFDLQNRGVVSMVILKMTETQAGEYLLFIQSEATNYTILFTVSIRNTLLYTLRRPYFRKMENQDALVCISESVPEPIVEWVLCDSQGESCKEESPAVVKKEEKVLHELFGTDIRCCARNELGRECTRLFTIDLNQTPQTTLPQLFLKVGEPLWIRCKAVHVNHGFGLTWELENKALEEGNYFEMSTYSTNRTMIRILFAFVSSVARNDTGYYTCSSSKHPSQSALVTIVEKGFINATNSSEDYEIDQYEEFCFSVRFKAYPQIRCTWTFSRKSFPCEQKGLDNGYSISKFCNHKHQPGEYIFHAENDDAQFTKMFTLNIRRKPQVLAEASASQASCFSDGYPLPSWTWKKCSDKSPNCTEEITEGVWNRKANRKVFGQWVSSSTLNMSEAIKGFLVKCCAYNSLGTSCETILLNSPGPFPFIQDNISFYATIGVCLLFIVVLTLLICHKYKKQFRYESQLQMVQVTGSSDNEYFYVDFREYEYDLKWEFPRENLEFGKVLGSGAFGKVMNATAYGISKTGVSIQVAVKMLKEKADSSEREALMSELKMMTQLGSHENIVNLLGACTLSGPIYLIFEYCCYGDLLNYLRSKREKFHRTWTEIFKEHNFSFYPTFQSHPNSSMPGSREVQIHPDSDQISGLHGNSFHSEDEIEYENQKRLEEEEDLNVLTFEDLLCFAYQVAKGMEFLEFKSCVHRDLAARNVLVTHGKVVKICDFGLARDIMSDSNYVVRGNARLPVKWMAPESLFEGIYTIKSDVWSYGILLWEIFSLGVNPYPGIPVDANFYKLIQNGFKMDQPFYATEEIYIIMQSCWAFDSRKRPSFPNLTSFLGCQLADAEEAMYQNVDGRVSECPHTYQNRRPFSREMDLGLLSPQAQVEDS

[13] = target: Tyrosine-protein kinase Mer (Homo sapiens) (UniProt Q12866); test: Inhibition of human MER at 1 uM after 30 mins by fluorescence assay in presence of ATP
[14] = target: Ribosomal protein S6 kinase alpha-1 (Homo sapiens) (UniProt Q15418); test: Inhibition of human RSK1 at 1 uM after 30 mins by fluorescence assay in presence of ATP
[15] = target: T1, ALK tyrosine kinase receptor (Homo sapiens, UniProt Q9UM73); test: Inhibition of human ALK at 1 uM after 30 mins by fluorescence assay in presence of ATP
[16] = target: Insulin-like growth factor 1 receptor (Homo sapiens) (UniProt P08069); test: Inhibition of human IGF1R at 1 uM after 30 mins by fluorescence assay in presence of ATP
[17] = target: Aurora kinase A (Homo sapiens) (UniProt O14965); test: Inhibition of human Aurora A at 1 uM after 30 mins by fluorescence assay in presence of ATP
[18] = target: Serine/threonine-protein kinase Chk2 (Homo sapiens) (UniProt O96017); test: Inhibition of human CHK2 at 1 uM after 30 mins by fluorescence assay in presence of ATP
[19] = target: Epidermal growth factor receptor (Homo sapiens) (UniProt P00533); test: Inhibition of human EGFR at 1 uM after 30 mins by fluorescence assay in presence of ATP
[20] = target: Protein-tyrosine kinase 2-beta (Homo sapiens) (UniProt Q14289); test: Inhibition of human PYK2 at 1 uM after 30 mins by fluorescence assay in presence of ATP
[21] = target: Aurora kinase B (Homo sapiens) (UniProt Q96GD4); test: Inhibition of human Aurora B at 1 uM after 30 mins by fluorescence assay in presence of ATP
[22] = target: Tyrosine-protein kinase receptor UFO (Homo sapiens) (UniProt P30530); test: Inhibition of human AXL at 1 uM after 30 mins by fluorescence assay in presence of ATP
[23] = target: NUAK family SNF1-like kinase 1 (Homo sapiens) (UniProt O60285); test: Inhibition of human ARK5 at 1 uM after 30 mins by fluorescence assay in presence of ATP
[24] = target: Serine/threonine-protein kinase 10 (Homo sapiens) (UniProt O94804); test: Inhibition of human LOK at 1 uM after 30 mins by fluorescence assay in presence of ATP
Chain of Serine/threonine-protein kinase 10 (Homo sapiens) (O94804 whole entry, looked up): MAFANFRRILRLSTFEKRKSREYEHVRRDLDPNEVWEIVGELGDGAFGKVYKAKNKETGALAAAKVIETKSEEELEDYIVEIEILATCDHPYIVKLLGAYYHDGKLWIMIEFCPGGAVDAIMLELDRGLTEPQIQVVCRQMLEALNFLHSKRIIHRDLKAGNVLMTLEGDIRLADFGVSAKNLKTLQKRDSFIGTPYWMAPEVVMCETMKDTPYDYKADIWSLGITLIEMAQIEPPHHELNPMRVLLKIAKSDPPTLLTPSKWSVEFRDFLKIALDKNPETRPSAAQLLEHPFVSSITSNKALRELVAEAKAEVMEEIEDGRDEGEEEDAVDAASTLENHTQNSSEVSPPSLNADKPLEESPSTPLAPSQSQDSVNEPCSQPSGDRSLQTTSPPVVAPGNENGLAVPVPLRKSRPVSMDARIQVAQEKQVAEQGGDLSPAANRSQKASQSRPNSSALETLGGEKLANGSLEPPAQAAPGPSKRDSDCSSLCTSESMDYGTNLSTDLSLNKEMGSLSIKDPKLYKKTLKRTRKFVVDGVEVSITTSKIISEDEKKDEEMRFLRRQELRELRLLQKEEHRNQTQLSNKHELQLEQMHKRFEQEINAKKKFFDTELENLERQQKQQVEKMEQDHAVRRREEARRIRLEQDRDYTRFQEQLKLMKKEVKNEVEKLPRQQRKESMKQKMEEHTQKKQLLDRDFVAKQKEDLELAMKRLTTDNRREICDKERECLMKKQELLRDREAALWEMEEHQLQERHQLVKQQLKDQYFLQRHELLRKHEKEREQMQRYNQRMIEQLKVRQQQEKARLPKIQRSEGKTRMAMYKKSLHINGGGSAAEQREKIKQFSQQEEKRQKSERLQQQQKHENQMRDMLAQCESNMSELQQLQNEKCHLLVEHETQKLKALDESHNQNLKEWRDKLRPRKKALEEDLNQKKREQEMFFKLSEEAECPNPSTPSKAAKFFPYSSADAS

[25] = target: Proto-oncogene tyrosine-protein kinase ROS (Homo sapiens) (UniProt P08922); test: Inhibition of human ROS at 1 uM after 30 mins by fluorescence assay in presence of ATP
Chain of Proto-oncogene tyrosine-protein kinase ROS (Homo sapiens) (P08922 whole entry): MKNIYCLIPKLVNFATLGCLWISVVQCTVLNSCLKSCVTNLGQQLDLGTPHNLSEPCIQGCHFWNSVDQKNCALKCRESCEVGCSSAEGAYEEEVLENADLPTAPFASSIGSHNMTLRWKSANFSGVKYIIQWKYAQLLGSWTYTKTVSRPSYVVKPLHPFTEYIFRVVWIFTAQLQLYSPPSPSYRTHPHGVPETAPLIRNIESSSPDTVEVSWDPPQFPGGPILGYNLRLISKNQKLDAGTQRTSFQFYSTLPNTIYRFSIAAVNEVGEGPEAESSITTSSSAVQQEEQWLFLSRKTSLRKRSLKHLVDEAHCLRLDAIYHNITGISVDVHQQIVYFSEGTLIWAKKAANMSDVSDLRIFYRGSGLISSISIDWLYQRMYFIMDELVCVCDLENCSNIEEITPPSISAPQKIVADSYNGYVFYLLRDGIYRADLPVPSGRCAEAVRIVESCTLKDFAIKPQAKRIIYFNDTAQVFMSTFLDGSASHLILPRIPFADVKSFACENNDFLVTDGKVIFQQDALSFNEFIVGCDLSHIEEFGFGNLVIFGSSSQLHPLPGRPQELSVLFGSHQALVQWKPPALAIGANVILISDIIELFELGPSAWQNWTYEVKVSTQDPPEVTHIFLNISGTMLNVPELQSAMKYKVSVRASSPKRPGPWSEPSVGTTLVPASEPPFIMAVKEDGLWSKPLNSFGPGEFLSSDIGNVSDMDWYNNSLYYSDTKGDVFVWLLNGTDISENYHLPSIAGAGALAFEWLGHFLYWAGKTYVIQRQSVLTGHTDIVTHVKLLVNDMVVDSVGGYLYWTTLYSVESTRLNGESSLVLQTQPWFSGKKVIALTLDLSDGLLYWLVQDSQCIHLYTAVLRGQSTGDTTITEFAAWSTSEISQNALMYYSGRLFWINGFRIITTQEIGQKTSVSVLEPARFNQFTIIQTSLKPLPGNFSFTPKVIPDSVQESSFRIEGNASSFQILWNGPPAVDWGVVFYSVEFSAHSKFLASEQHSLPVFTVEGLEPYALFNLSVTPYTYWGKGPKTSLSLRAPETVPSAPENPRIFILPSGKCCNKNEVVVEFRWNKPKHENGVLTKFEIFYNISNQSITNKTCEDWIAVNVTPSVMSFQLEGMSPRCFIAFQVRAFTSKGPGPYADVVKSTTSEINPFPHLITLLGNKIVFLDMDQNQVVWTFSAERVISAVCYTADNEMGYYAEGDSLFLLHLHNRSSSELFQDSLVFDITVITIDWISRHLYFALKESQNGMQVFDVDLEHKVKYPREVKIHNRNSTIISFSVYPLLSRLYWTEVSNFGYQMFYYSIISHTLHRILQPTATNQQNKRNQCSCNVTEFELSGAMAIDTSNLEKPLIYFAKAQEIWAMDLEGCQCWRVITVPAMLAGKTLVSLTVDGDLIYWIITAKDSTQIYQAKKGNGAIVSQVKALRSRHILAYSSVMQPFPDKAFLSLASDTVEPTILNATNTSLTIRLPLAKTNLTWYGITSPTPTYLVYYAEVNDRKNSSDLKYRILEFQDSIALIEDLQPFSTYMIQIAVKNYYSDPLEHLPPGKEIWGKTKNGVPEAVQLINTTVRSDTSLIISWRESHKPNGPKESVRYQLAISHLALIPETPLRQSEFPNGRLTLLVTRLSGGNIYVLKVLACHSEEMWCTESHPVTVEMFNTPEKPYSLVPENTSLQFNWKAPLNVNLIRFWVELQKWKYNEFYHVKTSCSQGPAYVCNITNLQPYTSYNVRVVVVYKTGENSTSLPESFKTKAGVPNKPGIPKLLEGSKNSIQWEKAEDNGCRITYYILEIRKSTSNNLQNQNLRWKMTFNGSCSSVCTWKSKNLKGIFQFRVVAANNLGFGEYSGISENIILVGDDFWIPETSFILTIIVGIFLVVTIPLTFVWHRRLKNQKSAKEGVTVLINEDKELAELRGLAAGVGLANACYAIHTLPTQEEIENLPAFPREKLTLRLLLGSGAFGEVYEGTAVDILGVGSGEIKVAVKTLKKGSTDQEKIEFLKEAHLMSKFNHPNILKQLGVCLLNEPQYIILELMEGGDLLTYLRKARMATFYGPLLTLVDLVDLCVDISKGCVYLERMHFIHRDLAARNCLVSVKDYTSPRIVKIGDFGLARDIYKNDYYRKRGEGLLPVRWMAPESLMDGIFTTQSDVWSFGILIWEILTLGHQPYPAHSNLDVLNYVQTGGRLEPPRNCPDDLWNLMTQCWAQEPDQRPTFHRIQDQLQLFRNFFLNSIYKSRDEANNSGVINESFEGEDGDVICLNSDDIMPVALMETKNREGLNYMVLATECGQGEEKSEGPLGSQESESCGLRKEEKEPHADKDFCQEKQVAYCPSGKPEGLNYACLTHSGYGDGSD

[26] = target: Serine/threonine-protein kinase TAO1 (Homo sapiens) (UniProt Q7L7X3); test: Inhibition of human TAO1 at 1 uM after 30 mins by fluorescence assay in presence of ATP
[27] = target: Testis-specific serine/threonine-protein kinase 1 (Homo sapiens) (UniProt Q9BXA7); test: Inhibition of human TSSK1 at 1 uM after 30 mins by fluorescence assay in presence of ATP
[28] = target: High affinity nerve growth factor receptor (Homo sapiens) (UniProt P04629); test: Inhibition of human TRKA at 1 uM after 30 mins by fluorescence assay in presence of ATP
Chain of High affinity nerve growth factor receptor (Homo sapiens) (P04629 33-796 limits assumed): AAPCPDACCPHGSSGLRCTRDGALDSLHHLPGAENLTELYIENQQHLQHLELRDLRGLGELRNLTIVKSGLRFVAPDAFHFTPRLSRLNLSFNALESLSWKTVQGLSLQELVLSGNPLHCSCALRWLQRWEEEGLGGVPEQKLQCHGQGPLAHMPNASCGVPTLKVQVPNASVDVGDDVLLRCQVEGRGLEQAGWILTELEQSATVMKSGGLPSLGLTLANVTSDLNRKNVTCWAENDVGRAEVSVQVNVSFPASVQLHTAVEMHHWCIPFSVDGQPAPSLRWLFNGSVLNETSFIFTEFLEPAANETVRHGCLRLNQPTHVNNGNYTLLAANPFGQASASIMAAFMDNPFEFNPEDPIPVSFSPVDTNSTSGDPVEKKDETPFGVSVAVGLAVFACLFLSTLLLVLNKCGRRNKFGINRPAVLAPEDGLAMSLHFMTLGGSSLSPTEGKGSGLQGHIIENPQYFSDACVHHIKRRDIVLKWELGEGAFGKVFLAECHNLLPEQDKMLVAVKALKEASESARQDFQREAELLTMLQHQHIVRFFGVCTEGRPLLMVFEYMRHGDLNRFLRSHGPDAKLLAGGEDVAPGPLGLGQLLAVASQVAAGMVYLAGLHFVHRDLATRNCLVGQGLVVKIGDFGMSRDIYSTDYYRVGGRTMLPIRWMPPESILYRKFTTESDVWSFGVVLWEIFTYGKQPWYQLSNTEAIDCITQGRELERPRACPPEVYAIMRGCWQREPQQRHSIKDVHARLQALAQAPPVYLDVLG

[29] = target: Tyrosine-protein kinase Yes (Homo sapiens) (UniProt P07947); test: Inhibition of human YES at 1 uM after 30 mins by fluorescence assay in presence of ATP
[30] = target: Serine/threonine-protein kinase N2 (Homo sapiens) (UniProt Q16513); test: Inhibition of human PRK2 at 1 uM after 30 mins by fluorescence assay in presence of ATP
[31] = target: Ephrin type-B receptor 1 (Homo sapiens) (UniProt P54762); test: Inhibition of human EPHB1 at 1 uM after 30 mins by fluorescence assay in presence of ATP
[32] = target: Rho-associated protein kinase 2 (Homo sapiens) (UniProt O75116); test: Inhibition of human ROCK2 at 1 uM after 30 mins by fluorescence assay in presence of ATP
[33] = target: Ephrin type-A receptor 1 (Homo sapiens) (UniProt P21709); test: Inhibition of human EPHA1 at 1 uM after 30 mins by fluorescence assay in presence of ATP
Mus musculus [34] = test: Toxicity in SCID mouse xenografted with human H3122 cells assessed as change in body weight at 25 mg/kg, po administered qd for 14 days measured during compound dosing; format: organism-based; details: in vivo, 336 h
Mus musculus [35] = test: Toxicity in SCID mouse xenografted with human H3122 cells assessed as change in body weight at 50 mg/kg, po administered qd for 14 days measured during compound dosing; format: organism-based; details: in vivo, 336 h
[36] = target: T1, ALK tyrosine kinase receptor; test: Inhibition of wild type ALK (unknown origin) after 30 mins by HTRF assay
[37] = target: ALK tyrosine kinase receptor (Homo sapiens, UniProt Q9UM73, L1196M); test: Inhibition of ALK L1196M mutant (unknown origin) after 30 mins by HTRF assay
EML4-ALK (Homo sapiens) = EML4-ALK (Homo sapiens) (UniProt Q9UM73+Q9HC35); test: Inhibition of EML4-ALK in human NCI-H3122 cells assessed as inhibition of cell proliferation after 72 hrs by SRB assay; format: cell-based
BaF3 = test: Inhibition of ALK L1196M mutant in mouse BA/F3 cells assessed as inhibition of cell proliferation after 72 hrs by WST1 assay; format: cell-based
[38] = Metabolic stability of the compound in human liver microsomes assessed as compound remaining at 1 uM after 30 mins by LC/MS/MS analysis in the presence of NADPH; format: ADME; details: read-out: Stability
[39] = Metabolic stability of the compound in mouse liver microsomes assessed as compound remaining at 1 uM after 30 mins by LC/MS/MS analysis in the presence of NADPH; format: ADME; details: read-out: Stability

## COc1cc2c(cc1Nc1ncc(Cl)c(Nc3ccccc3S(=O)(=O)C(C)C)n1)CCC(N)C2(C)C (stereo unspecified)
[1]
  Tmax: 5.33 h
CYP1A2
  inhibition at 10 µM: 9.5%
CYP2C9
  inhibition at 10 µM: 38%
CYP2D6
  inhibition at 10 µM: 31%
CYP3A4
  inhibition at 10 µM: 97%
CYP2C19
  inhibition at 10 µM: 72%
[2]
  Cmax: 582 ng/mL
[3]
  half-life: 9.5 h
[4]
  AUC(0-t): 8750 ng·h/mL
[5]
  AUC(0-inf): 10900 ng·h/mL
NCI-H3122 [6]
  TGI: Active
NCI-H3122 [7]
  TGI: Active
[8]
  inhibition: 100%
[9]
  inhibition: 100%
[10]
  inhibition: 100%
[11]
  inhibition: 100%
[12]
  inhibition: 100%
[13]
  inhibition: 100%
[14]
  inhibition: 100%
[15]
  inhibition: 100%
[16]
  inhibition: 100%
[17]
  inhibition: 99%
[18]
  inhibition: 99%
[19]
  inhibition: 99%
[20]
  inhibition: 98%
[21]
  inhibition: 97%
[22]
  inhibition: 97%
[23]
  inhibition: 96%
[24]
  inhibition: 96%
[25]
  inhibition: 96%
[26]
  inhibition: 96%
[27]
  inhibition: 96%
[28]
  inhibition: 95%
[29]
  inhibition: 95%
[30]
  inhibition: 93%
[31]
  inhibition: 92%
[32]
  inhibition: 92%
[33]
  inhibition: 91%
Mus musculus [34]
  Activity: Non-toxic
Mus musculus [35]
  Activity: Non-toxic
[36]
  pIC50: 9.15
[37]
  pIC50: 8.82
EML4-ALK (Homo sapiens)
  CC50: 16 nM
BaF3
  CC50: 62 nM
[38]
  remaining at 0.5 h, 1 µM: 56%
[39]
  remaining at 0.5 h, 1 µM: 23%
